Laboratory results: ChEMBL document CHEMBL2434918, “QM-polarized ligand docking accurately predicts the trend in binding affinity of a series of arylmethylene quinuclidine-like derivatives at the α4β2 and α3β4 nicotinic acetylcholine receptors (nAChRs)” (Bioorg Med Chem Lett, 2013)

Key:
[1] = target: T1, Neuronal acetylcholine receptor; alpha4/beta2 (Homo sapiens, UniProt P17787+P43681); experiment: Agonist activity at human alpha4beta2 nAChR expressed in human SH-EP1 cells assessed as induction of electrophysiological response at 10 uM by patch clamp method relative to acetylcholine; format: cell-based
[2] = target: T1, Neuronal acetylcholine receptor; alpha4/beta2; experiment: Agonist activity at human alpha4beta2 nAChR expressed in human SH-EP1 cells assessed as induction of electrophysiological response at 1 uM by patch clamp method relative to acetylcholine; format: cell-based
[3] = target: T1, Neuronal acetylcholine receptor; alpha4/beta2; experiment: Agonist activity at human alpha4beta2 nAChR expressed in human SH-EP1 cells assessed as induction of intracellular Ca2+ influx by FLIPR assay relative to nicotine; format: cell-based
[4] = target: T1, Neuronal acetylcholine receptor; alpha4/beta2; experiment: Displacement of [3H]nicotine from human alpha4beta2 nAChR expressed in human SH-EP1 cell membranes after 2 hrs by liquid scintillation counting analysis
[5] = target: T1, Neuronal acetylcholine receptor; alpha4/beta2; experiment: Agonist activity at human alpha4beta2 nAChR expressed in human SH-EP1 cells assessed as induction of electrophysiological response at 0.1 uM by patch clamp method relative to acetylcholine; format: cell-based
[6] = target: T1, Neuronal acetylcholine receptor; alpha4/beta2; experiment: Agonist activity at human alpha4beta2 nAChR expressed in human SH-EP1 cells assessed as induction of intracellular Ca2+ influx by FLIPR assay; format: cell-based

T1 sequence (P17787 whole entry): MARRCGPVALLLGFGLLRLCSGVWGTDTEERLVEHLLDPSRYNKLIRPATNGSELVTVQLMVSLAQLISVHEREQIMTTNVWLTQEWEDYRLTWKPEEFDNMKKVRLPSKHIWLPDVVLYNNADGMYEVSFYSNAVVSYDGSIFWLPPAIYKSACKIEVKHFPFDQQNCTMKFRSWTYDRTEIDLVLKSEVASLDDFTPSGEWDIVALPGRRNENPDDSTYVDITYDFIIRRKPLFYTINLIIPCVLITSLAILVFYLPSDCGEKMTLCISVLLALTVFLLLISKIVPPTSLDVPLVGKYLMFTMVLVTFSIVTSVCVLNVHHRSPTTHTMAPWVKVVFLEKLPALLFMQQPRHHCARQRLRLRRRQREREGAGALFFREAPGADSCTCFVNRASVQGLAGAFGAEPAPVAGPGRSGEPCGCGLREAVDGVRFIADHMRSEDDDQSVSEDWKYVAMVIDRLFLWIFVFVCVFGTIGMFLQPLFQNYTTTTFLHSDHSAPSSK
T1 sequence (P43681 whole entry): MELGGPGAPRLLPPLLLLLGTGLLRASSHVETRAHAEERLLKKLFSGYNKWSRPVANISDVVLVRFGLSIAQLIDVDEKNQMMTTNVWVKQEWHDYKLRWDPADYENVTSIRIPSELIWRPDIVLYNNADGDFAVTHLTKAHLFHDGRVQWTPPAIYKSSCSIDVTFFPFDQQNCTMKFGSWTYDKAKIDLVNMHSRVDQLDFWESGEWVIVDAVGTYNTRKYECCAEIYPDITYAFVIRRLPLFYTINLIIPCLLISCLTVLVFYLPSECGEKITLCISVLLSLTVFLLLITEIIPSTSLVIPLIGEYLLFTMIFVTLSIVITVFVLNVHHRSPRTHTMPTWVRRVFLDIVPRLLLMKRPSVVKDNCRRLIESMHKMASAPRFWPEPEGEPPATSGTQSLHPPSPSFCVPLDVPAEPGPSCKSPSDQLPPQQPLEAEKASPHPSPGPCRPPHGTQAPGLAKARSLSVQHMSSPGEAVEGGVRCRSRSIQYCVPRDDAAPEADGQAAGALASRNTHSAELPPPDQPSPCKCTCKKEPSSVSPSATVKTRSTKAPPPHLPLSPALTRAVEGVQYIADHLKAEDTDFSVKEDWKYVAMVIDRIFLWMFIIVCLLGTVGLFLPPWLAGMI

`C(CN1CCCCC1)=C(c1ccccc1)c1ccccc1` showed an Activity [1] of 1%, an Activity [2] of 2% and an Emax [3] of 9%. For the same compound, the Ki [4] was 160 nM and the Activity [5] was 0.8%.
With `N#C/C(=C1\CN2CCC1CC2)c1ccccc1` the Activity [1] was 2%, the Activity [2] was 2% and the Emax [3] was < 5%. For the same compound, the Ki [4] was 1100 nM and the Activity [5] was 3%.
`c1ccc(C(=C2CN3CCC2CC3)c2ccccc2)cc1` gave an Activity [1] of 2%, an Activity [2] of 2% and an Emax [3] of 6%. For the same compound, the Ki [4] was 90 nM and the Activity [5] was 0.6%.
`c1ccc(C(c2ccccc2)[N+]23CCN(CC2)CC3)cc1` was tested, and the Activity [1] was 1%, the Activity [2] was 3% and the Emax [3] was < 5%. The Ki [4] was > 10000 nM and the Activity [5] was 1%.
Work on `C(=C1/CN2CCC1CC2)/c1ccccc1` yielded an Activity [1] of 2%, an Activity [2] of 3% and an Emax [3] of 11%. For the same compound, the Ki [4] was 1600 nM, the EC50 [6] was > 10 µM and the Activity [5] was 2%.
`C(=C1/CN2CCC1CC2)/c1cccnc1` was tested, and the Activity [1] was 24%, the Activity [2] was 11% and the Emax [3] was 18%. For the same compound, the Ki [4] was 6 nM, the EC50 [6] was > 10 µM and the Activity [5] was 4%.
In the case of `c1ccc(C[N+]23CCC(CC2)C(=C(c2ccccc2)c2ccccc2)C3)cc1`, the Activity [1] is reported as 1%, the Activity [2] is reported as 2% and the Emax [3] is reported as < 5%. For the same compound, the Ki [4] was 7000 nM and the Activity [5] was 2%.
